Literature values as cited in patent US5370879A, “Formulations and their use in the treatment of neurological diseases” (Elan Corporation, plc, priority 1990, dated 1994).

How the values were obtained:
MS patients [1] = details: orally in multiple daily doses
[2] = system: potassium ion flow in nerve impulse transmission
MS patients [3] = system: MS patients
[4] = system: patients with Alzheimer's disease
[5] = orally in multiple daily doses over 2-5 days

Row | Compound | specific neurological deficits (MS patients [1]) | visual evoked response latencies (MS patients [1]) | conduction in blocked demyelinated nerves [2] | potassium ion flow in nerve impulse transmission [2] | conduction of nerve impulses (MS patients [3]) | symptoms in MS patients (MS patients [3]) | improvements noted in clinical trials (MS patients [3]; [5]) | side effects (MS patients [3]; [5]) | mental functions [4]
1 | Nc1ccncc1N [3,4-DAP, 3,4-Di-aminopyridine] | improve specific neurological deficits | improve | – | – | – | – | – | – | –
2 | Nc1ccncc1 [Example 4-AP, 4-Aminopyridine] | – | – | effective in restoring conduction in blocked demyelinated nerves | slow the potassium ion flow | improve the conduction of nerve impulses | alleviating symptoms in MS patients | mild to marked improvements | minimal side effects | improve the mental functions
